# Measurements reported in US9944591B2, “Active compound and related composition for dermatological use in the pharmaceutical or cosmetic field” (GIULIANI S.P.A., priority 2014, dated 2018).
# Tests used:
# [1] = test system: ROS (reactive oxygen species); experiment: Production of ROS by DCFH-DA assay (H2O2-induced oxidative stress); assay type: cell-based, human
# [2] = test system: TNF-α; experiment: Anti-inflammatory effects through gene expression of TNF-alpha on keratinocytes (qRT-PCR); assay type: cell-based; conditions: human keratinocytes NCTC 2544, 5 μM, 24 h, LPS 5 μg/ml; FIG. 3
# Experimental: In such further test, an immortalized line of human keratinocytes NCTC 2544 is used (Perry V. P. et al., 1957) cultured in sterile flasks ([…]), incubated at 37° C. in a humid atmosphere at 5% CO2 in culture medium MEM (Minimum Essential Medium) supplemented with 10% fetal bovine serum (FBS), 2 mM glutamine, 1% non-essential amino acids, in the presence of 1% penicillin and streptomycin.
# When the cells (human keratinocytes NCTC 2544) reached about 80% confluence, they were detached with trypsin/EDTA and seeded at a density of 1×10^6 cells/ml in 12-well plates and incubated at 37° C., 5% CO2 (24 h). […]
# The effect of the compounds object of the study on the gene expression of TNF-α was evaluated by quantitative RT-PCR (quantitative reverse transcription-polymerasechainreaction-qRT-PCR). […]
# Using a spectrophotometer (Jenway UV/VIS MOD: 6715, BS-6715B0), concentrations were calculated in μg/mL of total RNA extracted at a wavelength of 260 nm.
# (§1) Finally, the integrity of RNA (2 μg/mL) was assessed by means of an electrophoresis run on 1% agarose gel. […]
# (§2) Extracted and quantified RNA was diluted to a concentration of 2 μg/mL and reverse transcribed into cDNA. […]
# [3] = test system: HAS1 (Hyaluronan Synthase 1); experiment: Gene expression of HAS1 (hyaluronan synthase 1) on fibroblasts (qRT-PCR); assay type: cell-based; conditions: BALB3T3 mouse fibroblasts, 24 h, 2.5 and 5 μM, FIG. 4
# Experimental: In this third test, the mouse fibroblast cell line Balb 3T3 Clone A31 (ATCC CCL-163™) (Aaronson and Todaro, 1968) was used, cultured in sterile flasks ([…]), incubated at 37° C. in a humid atmosphere at 5% CO2 in DMEM (Dulbecco's Modified Eagle's Medium) added with 10% bovine fetal serum (CBS), 1% non-essential amino acids, in the presence of 1% penicillin and streptomycin.
# The 1:3 split is done every 2 days upon achieving the monolayer by washing with 1×PBS (phosphate buffer without Ca^2+ and Mg^2+) and detachment of cells with a trypsin-EDTA solution at 37° C. for 2 minutes. […]
# Gene expression of HAS1 in BALB3T3 cells was evaluated by relative quantitative RT-PCR (quantitative reverse transcription-polymerase chain reaction-qRT-PCR). […]
# At the end of incubation with the active compounds of interest, cells were washed with PBS (1×) and finally subjected to RNA extraction procedure. At the end of the extraction, using a spectrophotometer (Jenway UV/VIS MOD: 6715, BS-6715B0), concentrations were calculated in μg/mL of total RNA extracted at a wavelength of 260 nm.
# as §1, §2
# The Taqman probe is a type of probe that allows the development of fluorescence as the amplification advances. […]
smiles,measurement,setting,value
"C/C=C/C=C/C=C/C(=O)NCCCC(=O)O [compound of the invention, 4-((2E,4E,6E)-octa-2,4,6-trienamid)butanoic acid]","% ROS produced/Ctr, compared to GABA","[1]; human keratinocytes NCTC2544, 0.5 μM, versus comparison compound GABA at same concentration, FIG. 2",superior antioxidant activity
same,% ROS produced/Ctr (antioxidant activity),"[1]; human keratinocytes NCTC2544, 16 h pre-treatment at 0.5 μM, 1 μM, 5 μM, then 1 mM H2O2 90 min, FIG. 1",antioxidant activity
same,gene expression of TNF-α (2-ΔΔCt) compared to positive control,[2],reduced expression of TNF-α
same,gene expression of HAS1 compared to reference compound GABA,[3]; versus GABA,higher than the reference compound at both concentrations tested
same,gene expression of HAS1 (2^−ΔΔCt),[3],increased gene expression of HAS1
